In patent publication US5880160A (priority 1995, dated 1999):

Key:
MCF7-ADR (resistant) = assay: cells; assay type: cell-based, human; conditions: for MCF7-ADR/MCF7: ratio of IC50 in MCF7-ADR to IC50 in MCF-7; for IC50: MCF7-ADR resistant cell line, in vitro
MCF-7 (human breast) = assay: cells; assay type: cell-based; conditions: MCF-7 human breast cell line, in vitro

Row | SMILES | MCF7-ADR/MCF7 (MCF7-ADR (resistant)) | IC50 (MCF7-ADR (resistant); Homo sapiens, NCI/ADR-RES) | IC50 (MCF-7 (human breast); MCF7) | IC50 (MCF7-ADR (resistant)) | IC50 (MCF-7 (human breast))
1 | COc1cc2c(c(OC)c1OC)-c1ccc(OC)c(=O)cc1[C@@H](NC(C)=O)CC2 [Colchicine, colchicine, reference compound] | 25.45 | – | – | – | –
2 | COc1cc2c(c(OC)c1OC)-c1ccc(SC)c(=O)cc1[C@@H](NC(=O)C(F)(F)C(F)(F)F)CC2 [Compound I, N-deacetyl-N-pentafluoro-propionyl-thiocolchicine] | 4.2 | 26 ± 2.3 nM | 6.2 ± 0.4 nM | – | –
3 | CCCCCC/C=C/C#CCCCCCCCC(=O)Oc1cc2c(c(OC)c1OC)-c1ccc(SC)c(=O)cc1C(NC(=O)C(F)(F)C(F)(F)F)CC2 (stereo not shown) [Compound II, N-deacetyl-N-pentafluoropropionyl-3-O-ximenoyl-thiocolchicine] | 2.2 | – | – | 11 ± 1.9 nM | 5 ± 0.2 nM
4 | COc1c(OC2C=CCC2)cc2c(c1OC)-c1ccc(SC)c(=O)cc1[C@@H](NC(=O)C(F)(F)C(F)(F)F)CC2 (stereo partly shown) [Compound III, N-deacetyl-N-pentafluoropropionyl-3-O-demethyl-3-O-cyclopentenyl-thiocolchicine] | 1.7 | 7 ± 0.4 nM | 4.1 ± 0.3 nM | – | –
5 | COc1cc2c(c(OC)c1OC)-c1ccc(SC)c(=O)cc1[C@@H](NC(=O)C(F)(F)C(F)(F)C(F)(F)F)CC2 [Compound IV, N-deacetyl-N-heptafluorobutyroyl-thiocolchicine] | 9.7 | 31 ± 1.9 nM | 3.2 ± 0.2 nM | – | –
6 | CC(=O)O[C@H]1C(=O)[C@@]2(C)[C@H]([C@H](OC(=O)c3ccccc3)[C@]3(O)C[C@H](OC(=O)[C@H](O)[C@@H](NC(=O)c4ccccc4)c4ccccc4)C(C)=C1C3(C)C)[C@]1(OC(C)=O)CO[C@@H]1C[C@@H]2O [Taxol, reference compound] | 59.01 | 360 ± 7.8 nM | 6.1 ± 0.3 nM | – | –
